PubChem BioAssay AID1919013 (Molecular Pharmacology Branch, DTP, NCI, 2023)
Blank lines part the entries; values can stand above or below the compound they belong to.

System: LG0703-F498-PDC complex spheroid growth
Assay: Anticancer human tumor LG0703-F498-PDC patient-derived lung adenocarcinoma cell line growth inhibition [AhR]
Conditions: for IC50: curve of first compound; for viability, T/C: stronger effect = lower value
How it was run: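 Agents were dosed in half-log steps down from roughly clinical Cmax, or from 10 microM where Cmax was unknown, alone and with AhR antagonists. Read-out: percent test/control growth of tumor spheroids containing HUVEC and MSC stromal cells.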

[1] = second compound 0.1 µM, first compound 0.0316 µM
[2] = second compound 0.1 µM, first compound 0.1 µM
[3] = second compound 0.1 µM, first compound 0.316 µM
[4] = second compound 0.1 µM, first compound 1 µM
[5] = second compound 0.1 µM, first compound 3.16 µM
[6] = second compound 0.1 µM, first compound 10 µM
[7] = second compound 0.316 µM, first compound 0.0316 µM
[8] = second compound 0.316 µM, first compound 0.1 µM
[9] = second compound 0.316 µM, first compound 0.316 µM
[10] = second compound 0.316 µM, first compound 1 µM
[11] = second compound 0.316 µM, first compound 3.16 µM
[12] = second compound 0.316 µM, first compound 10 µM
[13] = second compound 1 µM, first compound 0.0316 µM
[14] = second compound 1 µM, first compound 0.1 µM
[15] = second compound 1 µM, first compound 0.316 µM
[16] = second compound 1 µM, first compound 1 µM
[17] = second compound 1 µM, first compound 3.16 µM
[18] = second compound 1 µM, first compound 10 µM
[19] = second compound 3.16 µM, first compound 0.0316 µM
[20] = second compound 3.16 µM, first compound 0.1 µM
[21] = second compound 3.16 µM, first compound 0.316 µM
[22] = second compound 3.16 µM, first compound 1 µM
[23] = second compound 3.16 µM, first compound 3.16 µM
[24] = second compound 3.16 µM, first compound 10 µM
[25] = second compound 10 µM, first compound 0.0316 µM
[26] = second compound 10 µM, first compound 0.1 µM
[27] = second compound 10 µM, first compound 0.316 µM
[28] = second compound 10 µM, first compound 1 µM
[29] = second compound 10 µM, first compound 3.16 µM
[30] = second compound 10 µM, first compound 10 µM
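Also: luminescence taken as a proxy for viable cell amount.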
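For viability, T/C in this document: percent of DMSO vehicle control where 100% means growth equal to vehicle.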

IC50 (second compound 0.1 µM): > 10 µM
IC50 (second compound 0.316 µM): > 10 µM
IC50 (second compound 1 µM): > 10 µM
IC50 (second compound 3.16 µM): > 10 µM
IC50 (second compound 10 µM): > 10 µM
SMILES: COc1cc(C2c3cc4c(cc3C(OC3OC5COC(C)OC5C(O)C3O)C3COC(=O)C23)OCO4)cc(OC)c1O (stereo not given) + CC(CO)NC(=O)c1cc(-c2ccc(Cl)cc2)nn(-c2cnn(C)c2)c1=O
viability, T/C [1]: 111%
viability, T/C [2]: 108%
viability, T/C [3]: 93.9%
viability, T/C [4]: 87.9%
viability, T/C [5]: 81.8%
viability, T/C [6]: 76.3%
viability, T/C [7]: 98.6%
viability, T/C [8]: 107%
viability, T/C [9]: 99.8%
viability, T/C [10]: 81.5%
viability, T/C [11]: 93.3%
viability, T/C [12]: 69.9%
viability, T/C [13]: 100%
viability, T/C [14]: 103%
viability, T/C [15]: 101%
viability, T/C [16]: 94.3%
viability, T/C [17]: 75.7%
viability, T/C [18]: 75.2%
viability, T/C [19]: 91.1%
viability, T/C [20]: 95.8%
viability, T/C [21]: 96.5%
viability, T/C [22]: 81.7%
viability, T/C [23]: 72.8%
viability, T/C [24]: 75.5%
viability, T/C [25]: 84.3%
viability, T/C [26]: 85.7%
viability, T/C [27]: 90.7%
viability, T/C [28]: 78%
viability, T/C [29]: 73%
viability, T/C [30]: 60.8%

IC50 (second compound 0.1 µM): > 1 µM
IC50 (second compound 0.316 µM): > 1 µM
IC50 (second compound 1 µM): > 1 µM
IC50 (second compound 3.16 µM): > 1 µM
IC50 (second compound 10 µM): > 1 µM
SMILES: Nc1ncn(C2CC(O)C(CO)O2)c(=O)n1 (stereo not given) + CC(CO)NC(=O)c1cc(-c2ccc(Cl)cc2)nn(-c2cnn(C)c2)c1=O
viability, T/C (second compound 0.1 µM, first compound 0.00316 µM): 85.3%
viability, T/C (second compound 0.1 µM, first compound 0.01 µM): 99.4%
viability, T/C [1]: 84.8%
viability, T/C [2]: 91.1%
viability, T/C [3]: 85.9%
viability, T/C [4]: 78%
viability, T/C (second compound 0.316 µM, first compound 0.00316 µM): 81.5%
viability, T/C (second compound 0.316 µM, first compound 0.01 µM): 91.9%
viability, T/C [7]: 82.2%
viability, T/C [8]: 87.5%
viability, T/C [9]: 79.2%
viability, T/C [10]: 76.5%
viability, T/C (second compound 1 µM, first compound 0.00316 µM): 83.5%
viability, T/C (second compound 1 µM, first compound 0.01 µM): 106%
viability, T/C [13]: 78.5%
viability, T/C [14]: 79.5%
viability, T/C [15]: 71.7%
viability, T/C [16]: 77.4%
viability, T/C (second compound 3.16 µM, first compound 0.00316 µM): 78.7%
viability, T/C (second compound 3.16 µM, first compound 0.01 µM): 80%
viability, T/C [19]: 88.4%
viability, T/C [20]: 67.9%
viability, T/C [21]: 80.5%
viability, T/C [22]: 71.8%
viability, T/C (second compound 10 µM, first compound 0.00316 µM): 87.4%
viability, T/C (second compound 10 µM, first compound 0.01 µM): 80.2%
viability, T/C [25]: 79.3%
viability, T/C [26]: 80.3%
viability, T/C [27]: 69.9%
viability, T/C [28]: 72.7%

IC50 (second compound 0.1 µM): > 10 µM
IC50 (second compound 0.316 µM): > 10 µM
IC50 (second compound 1 µM): > 10 µM
IC50 (second compound 3.16 µM): > 10 µM
IC50 (second compound 10 µM): > 10 µM
SMILES: CC1COCCN1c1cc(C2(S(C)(=N)=O)CC2)nc(-c2ccnc3[nH]ccc23)n1 (stereo not given) + Cc1ccccc1N=Nc1ccc(NC(=O)c2ccnn2C)c(C)c1
viability, T/C [1]: 108%
viability, T/C [2]: 101%
viability, T/C [3]: 97%
viability, T/C [4]: 99.5%
viability, T/C [5]: 94.8%
viability, T/C [6]: 67.6%
viability, T/C [7]: 100%
viability, T/C [8]: 92.7%
viability, T/C [9]: 105%
viability, T/C [10]: 98%
viability, T/C [11]: 95%
viability, T/C [12]: 64.1%
viability, T/C [13]: 99.2%
viability, T/C [14]: 92.9%
viability, T/C [15]: 93.7%
viability, T/C [16]: 96.6%
viability, T/C [17]: 82.1%
viability, T/C [18]: 67.4%
viability, T/C [19]: 81.9%
viability, T/C [20]: 88.5%
viability, T/C [21]: 107%
viability, T/C [22]: 87.5%
viability, T/C [23]: 68.6%
viability, T/C [24]: 56.1%
viability, T/C [25]: 91.4%
viability, T/C [26]: 77.2%
viability, T/C [27]: 95.4%
viability, T/C [28]: 91.9%
viability, T/C [29]: 79.7%
viability, T/C [30]: 65.2%
